In patent US7731985B2, “4-aminopyrimidines and their use for the antimicrobial treatment of surfaces” (Ciba Specialty Chemicals Corporation, priority 2002, dated 2010):

Assays:
Assay in all cases: MIC in microtitre plates (Example 10)
Assay type in all cases: cell-based
Parameters in all cases: unit not given here
Details in all cases: microtitre plate, 48 hours at 37° C., ≦20% growth
[1] = test system: Pseudomonas aeruginosa CIP A-22 (=PA)
How it was run: (§1)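 DMSO-dissolved compounds tested in 1:2 serial dilution against overnight CASO broth cultures, inoculum adjusted to 1-5×10^6 CFU/ml then diluted 1:100 in CASO. Incubated 48 hours at 37° C; turbidity read at 620 nm. MIC = lowest concentration giving ≦20% growth versus control; duplicates.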

[2] = test system: Staphylococcus aureus ATCC 9144 (=SA)
How it was run: as §1

[3] = test system: Candida albicans ATCC 10231 (=CA)
How it was run: as §1

[4] = test system: Escherichia coli NCTC 8196 (=EC)
How it was run: as §1

SMILES | MIC PA [1] | MIC SA [2] | MIC CA [3] | MIC EC [4]
Cc1cc(NC(C)CC(C)C)nc(C2CC2)n1 (centres unmarked) [compound 145] | >120 | >120 | 120 | >120
CCCCCCCCNc1cc(C)nc(-c2ccc(C)c(F)c2)n1 [compound 70] | >120 | <3.75 | 7.5 | 15
Cc1cc(Nc2ccccn2)nc(-c2cccnc2)n1 [compound 47] | >120 | 120 | >120 | >120
CCCCCCCCNc1cc(C)nc(-c2ccccc2)n1 [compound 63] | >120 | 15 | 60 | 30
Cc1cc(NC(C)CC(C)C)nc(C)n1 (centres unmarked) [compound 143] | >120 | >120 | 120 | >120
CCCCCCCCCCNc1cc(C)nc(C(C)C)n1 [compound 105] | >120 | 7.5 | 7.5 | 15
CCCCCCCCCCCCNc1cc(C)nc(-c2ccccc2)n1 [compound 87] | <120 | 15 | 7.5 | 15
CCCCCCCCCCCCNc1cc(C)nc(-c2ccc(C)cc2)n1 [compound 91] | >120 | 30 | 15 | 30
CCCCC(CC)CNc1cc(C)nc(-c2ccc(C)c(F)c2)n1 (centres unmarked) [compound 140] | >120 | 15 | 120 | >120
CCCCCCCCCCNc1cc(C)nc(-c2ccc(C)cc2)n1 [compound 103] | >120 | 15 | 30 | 60
Cc1cc(N2CCOCC2)nc(-c2cccnc2)n1 [compound 50] | >120 | 120 | >120 | >120
CCCCCCCCCCNc1cc(C)nc(C2CC2)n1 [compound 104] | >120 | <3.75 | 7.5 | 7.5
CCCCCCCCCCCCCCNc1cc(C)nc(-c2ccc(C(C)(C)C)cc2)n1 [compound 72] | >120 | 7.5 | 7.5 | 15
COc1cccc(-c2nc(-c3ccccc3)nc(NCCCN3CCN(CCCN)CC3)c2-c2ccccc2)c1 [compound 25] | >120 | >120 | 120 | 60
CCCCC(CC)CNc1cc(C)nc(-c2csc(C)n2)n1 (centres unmarked) [compound 139] | >120 | 7.5 | 30 | 60
CCCCCCCCCCCNc1cc(C)nc(-c2cccnc2)n1 [compound 35] | 120 | 15 | 30 | 30
CCN(CC)CCCNc1cc(C)nc(-c2cccnc2)n1 [compound 44] | >120 | 120 | 120 | >120
CCCCN(C)c1cc(C)nc(-c2csc(C)n2)n1 [compound 129] | >120 | 120 | 120 | >120

SMILES | MIC PA [1] | MIC SA [2] | MIC CA [3] | MIC EC [4]
COc1cccc(-c2nc(-c3ccccc3)nc(NCCCN(C)CCCN)c2-c2ccccc2)c1 [compound 24] | 30 | 30 | 30 | 15
CCCCC(CC)CNc1cc(C)nc(-c2ccc(C(C)(C)C)cc2)n1 (centres unmarked) [compound 131] | >120 | 120 | >120 | >120
CCCCCCCCCCCCCCNc1cc(C)nc(-c2cccc(F)c2)n1 [compound 75] | >120 | 7.5 | 7.5 | 15
CCCCCCCCNc1cc(C)nc(-c2csc(C)n2)n1 [compound 69] | >120 | <3.75 | 7.5 | 30
CCCCCCCCNc1cc(C)nc(-c2ccc(-c3ccccc3)cc2)n1 [compound 57] | >120 | 60 | 120 | >120
CCCCCCCCCCCCCCNc1cc(C)nc(-c2ccc(-c3ccccc3)cc2)n1 [compound 71] | >120 | 7.5 | 7.5 | 15
Cc1cc(N(C)CCO)nc(-c2cccnc2)n1 [compound 55] | >120 | 120 | >120 | >120
Cc1cc(NC2CCCCC2)nc(-c2cccnc2)n1 [compound 46] | >120 | 120 | 120 | >120
CCCCCCCCCCCCNc1cc(C)nc(-c2cccs2)n1 [compound 86] | <120 | 15 | 7.5 | 15
CCCCCCNc1cc(C)nc(-c2csc(C)n2)n1 [compound 118] | >120 | 7.5 | 15 | 60
CCCCCCNc1cc(C)nc(C(C)C)n1 [compound 117] | >120 | 15 | 30 | 120
FC(F)(F)c1cccc(-c2cc(N3CCC(CCCC4CCNCC4)CC3)ncn2)c1 [compound 30] | >120 | 60 | 15 | 30
CCCCCCCCCCCCNc1cc(C)nc(-c2ccc(C(C)(C)C)cc2)n1 [compound 85] | <120 | 15 | 7.5 | 7.5
Cc1cc(NC(C)CC(C)C)nc(-c2ccc(C)c(F)c2)n1 (centres unmarked) [compound 148] | >120 | 120 | >120 | >120
NCCCCCCCCCCCCNc1nc(-c2ccccc2)nc(-c2ccc(F)cc2)c1-c1ccccc1 [compound 8] | >120 | 30 | 120 | 30
CN(CCCN)CCCNc1nc(-c2ccccc2)nc(-c2cccc(C(F)(F)F)c2)c1-c1ccccc1 [compound 21] | 7.5 | 7.5 | <3.75 | <3.75
CCCCN(C)c1cc(C)nc(-c2ccc(C(C)(C)C)cc2)n1 [compound 123] | >120 | 120 | >120 | >120
